Measured values: patent US12240830B2, “Fused ring heteroaryl compounds and use thereof” (BiSiChem Co., Ltd., priority 2021, dated 2025)

Molecular target: T1, ALK5 (Homo sapiens, UniProt P36897)
T1 construct: Cells were seeded at 3×10^4/well in 24-well plates were transiently transfected with 500 ng of (CAGA)-12-luciferase reporter construct; endogenous in cells; host or cells: Hs578T (ATCC HTB-22)
T1 sequence (P36897 34-503): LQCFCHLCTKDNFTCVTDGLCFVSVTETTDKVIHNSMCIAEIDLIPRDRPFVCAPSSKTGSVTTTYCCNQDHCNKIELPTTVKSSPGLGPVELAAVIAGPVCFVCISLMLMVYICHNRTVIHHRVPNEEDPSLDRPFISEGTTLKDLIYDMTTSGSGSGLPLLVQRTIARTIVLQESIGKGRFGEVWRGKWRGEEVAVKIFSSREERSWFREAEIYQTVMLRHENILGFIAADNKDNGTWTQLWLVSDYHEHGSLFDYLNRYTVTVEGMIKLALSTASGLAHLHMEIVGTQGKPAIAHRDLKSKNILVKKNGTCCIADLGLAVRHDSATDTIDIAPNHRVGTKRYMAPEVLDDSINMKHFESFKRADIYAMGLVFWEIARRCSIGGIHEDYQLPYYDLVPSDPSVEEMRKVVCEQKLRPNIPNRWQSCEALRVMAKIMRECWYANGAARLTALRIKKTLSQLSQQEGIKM
Assay: Cell-based luciferase reporter assay for ALK5 activity
Settings: (CAGA)-12-luciferase reporter, cells stimulated with 2 ng/ml recombinant TGF-β1 for 12 hours; Hs578T cells; read-out: Relative luciferase activity: IC50 value
Protocol: Human cancer cell lines Hs578T (ATCC® HTB-22™) cells were grown in DMEM (Dulbecco's modified Eagle's medium) supplemented with 10% fetal bovine serum and 1% mixture of penicillin and streptomycin (Gibco). Cells were maintained at 37° C. in a humidified 5% CO2− atmosphere.
Cell-Based Luciferase Reporter Assay for ALK5 Activity
Cells were seeded at 3×10^4/well in 24-well plates were transiently transfected with 500 ng of (CAGA)-12-luciferase reporter construct and 5 ng of pRL-TK Renilla luciferase vector (Promega, Madison, WI), an internal control for transfection efficiency, using Lipofectamine 3000 reagent (Thermo Fisher Scientific, Waltham, USA). After 24 h transfection, the cells were pre-treated with ALK5 inhibitor in dose-dependent manner. And then, Cells stimulated with 2 ng/ml recombinant TGF-β1 for 12 hours. After the stimulation, the firefly and Renilla luciferase activities were measured by Dual-Luciferase Reporter Assay (Promega). […]

| Compound | IC50 [nM] |
| --- | --- |
| Cc1cccc(-c2[nH]c(NCc3cccc(F)c3)nc2-c2cnc3[nH]ncc3c2)n1 [Example 38, N-(3-fluorobenzyl)-5-(6-methylpyridin-2-yl)-4-(1H-pyrazolo[3,4-b]pyridin-5-yl)-1H-imidazol-2-amine] | 10 to 100 |
| Cc1cccc(-c2[nH]c(NCc3ccc(C)c(F)c3)nc2-c2ccc3c(cnn3C)c2)n1 [Example 19, N-(3-fluoro-4-methylbenzyl)-4-(1-methyl-1H-indazol-5-yl)-5-(6-methyl-pyridine-2-yl)-1H-imidazol-2-amine] | < 10 |
| Cc1cccc(-c2[nH]c(NCc3cccc(F)c3)nc2-c2cnc3c(cnn3C)c2)n1 [Example 31, N-(3-fluorobenzyl)-4-(1-methyl-1H-pyrazolo[3,4-b]pyridin-5-yl)-5-(6-methyl-pyridin-2-yl)-1H-imidazol-2-amine] | < 10 |
| Cc1cccc(-c2[nH]c(NCc3ccc(F)cc3F)nc2-c2ccc3c(cnn3C)c2)n1 [Example 36, N-(2,4-difluorobenzyl)-4-(1-methyl-1H-indazol-5-yl)-5-(6-methylpyridin-2-yl)-1H-imidazol-2-amine] | 10 to 100 |
| Cc1cccc(-c2[nH]c(NCc3cccc(F)c3)nc2-c2ccc3c(cnn3C(C)(C)CO)c2)n1 [Example 26, 2-(5-(2-((3-fluorobenzyl)amino)-5-(6-methylpyridin-2-yl)-1H-imidazol-4-yl)-1H-indazol-1-yl)-2-methylpropan-1-ol] | > 100 |
| Cc1ccc(CNc2nc(-c3ccc4c(cnn4C)c3)c(-c3cccc(C)n3)[nH]2)c(F)c1 [Example 18, N-(2-fluoro-4-methylbenzyl)-4-(1-methyl-1H-indazol-5-yl)-5-(6-methylpyridin-2-yl)-1H-imidazol-2-amine] | < 10 |
| Cc1cccc(-c2[nH]c(NCc3cccc(C)c3F)nc2-c2ccc3c(cnn3C)c2)n1 [Example 17, N-(2-fluoro-3-methylbenzyl)-4-(1-methyl-1H-indazol-5-yl)-5-(6-methylpyridin-2-yl)-1H-imidazol-2-amine] | 10 to 100 |
| Cc1cccc(-c2[nH]c(NCc3cccc(F)c3)nc2-c2cc3cnn(C)c3cn2)n1 [Example 33, N-(3-fluorobenzyl)-4-(1-methyl-1H-pyrazolo[3,4-c]pyridin-5-yl)-5-(6-methyl-pyridin-2-yl)-1H-imidazol-2-amine] | < 10 |
| Cc1cccc(-c2[nH]c(NCc3cccc(F)c3)nc2-c2ccc3c(cnn3S(C)(=O)=O)c2)n1 [Example 22, N-(3-fluorobenzyl)-5-(6-methylpyridin-2-yl)-4-(1-(methylsulfonyl)-1H-indazol-5-yl)-1H-imidazol-2-amine] | > 100 |
| Cc1cccc(-c2[nH]c(NCc3cccc(F)c3)nc2-c2ccc3c(cnn3C)n2)n1 [Example 32, N-(3-fluorobenzyl)-4-(1-methyl-1H-pyrazolo[4,3-b]pyridin-5-yl)-5-(6-methyl-pyridin-2-yl)-1H-imidazol-2-amine] | > 100 |

Second part, the compound after the results:

| IC50 [nM] | Compound |
| --- | --- |
| 10 to 100 | Cc1cccc(-c2[nH]c(NCc3ccc(F)c(F)c3)nc2-c2ccc3c(cnn3C(F)F)c2)n1 [Example 29, N-(3,4-difluorobenzyl)-4-(1-(difluoromethyl)-1H-indazol-5-yl)-5-(6-methyl-pyridin-2-yl)-1H-imidazol-2-amine] |
| < 10 | Cc1cccc(-c2[nH]c(NCc3cccc(Cl)c3F)nc2-c2ccc3c(cnn3C)c2)n1 [Example 23, N-(3-chloro-2-fluorobenzyl)-4-(1-methyl-1H-indazol-5-yl)-5-(6-methylpyridin-2-yl)-1H-imidazol-2-amine] |
| 10 to 100 | Cc1cccc(-c2[nH]c(NCc3cccc(F)c3F)nc2-c2ccc3c(cnn3C)c2)n1 [Example 35, N-(2,3-difluorobenzyl)-4-(1-methyl-1H-indazol-5-yl)-5-(6-methylpyridin-2-yl)-1H-imidazol-2-amine] |
| 10 to 100 | Cc1cccc(-c2[nH]c(NCc3cccc(Cl)c3F)nc2-c2ccc3c(cnn3C(F)F)c2)n1 [Example 27] |
| 10 to 100 | Cc1cccc(-c2[nH]c(NCc3ccc(Cl)c(Cl)c3)nc2-c2ccc3c(cnn3C(F)F)c2)n1 [Example 28, N-(3,4-dichlorobenzyl)-4-(1-(difluoromethyl)-1H-indazol-5-yl)-5-(6-methyl-pyridin-2-yl)-1H-imidazol-2-amine] |
